What was measured:
Set-up in all cases: scale not given here
ABUTH Velvetleaf [1] = assay: Preemergence herbicidal evaluation, ABUTH; type: in vivo, Abutilon theophrasti, Medic.; settings: preemergence
Summary of the method: (§1)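 Visual ratings were taken four to five weeks after application. Before that, cups sown with seed in potting soil received a spray of compound dissolved in aqueous acetone, equivalent to about 0.013 to 0.800 kg/ha, and stood on greenhouse benches under conventional care.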

ZEAMX Corn, Field [2] = assay: Preemergence herbicidal evaluation, ZEAMX; type: in vivo, Zea mays, L. (Sammel-Bezeichnung); settings: preemergence
Summary of the method: as §1

AMBEL Ragweed, Common [3] = assay: Preemergence herbicidal evaluation, AMBEL; type: in vivo, Ambrosia artemisifolia, L.; settings: preemergence
Summary of the method: as §1

ORYSAT Rice, Tebonnet [4] = assay: Postemergence herbicidal evaluation, ORYSAT; type: in vivo, Oryza sativa, (L.); settings: postemergence spray, rated about two-three weeks after treatment
Summary of the method: (§2)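 Plants are raised for roughly two weeks, then treated postemergence with compound dispersed in acetone/water (80/20) plus 1.0% seed oil adjuvant, at rates of about 0.006 kg to 0.400 kg per hectare. After greenhouse care, damage is scored two to three weeks later.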

[5] = test system: CHEAL Lambsquarters, Common; assay: Preemergence herbicidal evaluation, CHEAL; type: in vivo, Chenopodium album, L.; settings: preemergence
Summary of the method: as §1

SETVI Foxtail, Green [6] = assay: Preemergence herbicidal evaluation, SETVI; type: in vivo, Setaria viridis, (L.) Beau; settings: preemergence
Summary of the method: as §1

ECHOG Barnyardgrass [7] = assay: Postemergence herbicidal evaluation, ECHOG; type: in vivo, Echinochloa crus-galli, (L.) Beau; settings: postemergence spray, rated about two-three weeks after treatment
Summary of the method: as §2

[8] = test system: TRZAWR Wheat, Winter, cv Riband; assay: Postemergence herbicidal evaluation, TRZAWR; type: in vivo, Triticum aestivum; settings: postemergence spray, rated about two-three weeks after treatment
Summary of the method: as §2

ECHOG Barnyardgrass [9] = assay: Preemergence herbicidal evaluation, ECHOG; type: in vivo, Echinochloa crus-galli, (L.) Beau; settings: preemergence
Summary of the method: as §1

[10] = test system: IPOHE Morningglory, Ivyleaf; assay: Preemergence herbicidal evaluation, IPOHE; type: in vivo, Ipomoea hederacea, (L.) Jacq.; settings: preemergence
Summary of the method: as §1

[11] = test system: TRZAWR Wheat, Winter, cv Riband; assay: Preemergence herbicidal evaluation, TRZAWR; type: in vivo, Triticum aestivum; settings: preemergence
Summary of the method: as §1

AMBEL Ragweed, Common [12] = assay: Postemergence herbicidal evaluation, AMBEL; type: in vivo, Ambrosia artemisifolia, L.; settings: postemergence spray, rated about two-three weeks after treatment
Summary of the method: as §2

ORYSAT Rice, Tebonnet [13] = assay: Preemergence herbicidal evaluation, ORYSAT; type: in vivo, Oryza sativa, (L.); settings: preemergence
Summary of the method: as §1

CASOB Sicklepod [14] = assay: Preemergence herbicidal evaluation, CASOB; type: in vivo, Cassia obtusifolia, L.; settings: preemergence
Summary of the method: as §1

GLXMAW Soybean, Williams [15] = assay: Preemergence herbicidal evaluation, GLXMAW; type: in vivo, Glycine max, (L.) Merr. cv Williams; settings: preemergence
Summary of the method: as §1

SETVI Foxtail, Green [16] = assay: Postemergence herbicidal evaluation, SETVI; type: in vivo, Setaria viridis, (L.) Beau; settings: postemergence spray, rated about two-three weeks after treatment
Summary of the method: as §2

ZEAMX Corn, Field [17] = assay: Postemergence herbicidal evaluation, ZEAMX; type: in vivo, Zea mays, L. (Sammel-Bezeichnung); settings: postemergence spray, rated about two-three weeks after treatment
Summary of the method: as §2

[18] = test system: CHEAL Lambsquarters, Common; assay: Postemergence herbicidal evaluation, CHEAL; type: in vivo, Chenopodium album, L.; settings: postemergence spray, rated about two-three weeks after treatment
Summary of the method: as §2

[19] = test system: IPOHE Morningglory, Ivyleaf; assay: Postemergence herbicidal evaluation, IPOHE; type: in vivo, Ipomoea hederacea, (L.) Jacq.; settings: postemergence spray, rated about two-three weeks after treatment
Summary of the method: as §2

GALAP Galium [20] = assay: Postemergence herbicidal evaluation, GALAP; type: in vivo, Galium aparine; settings: postemergence spray, rated about two-three weeks after treatment
Summary of the method: as §2

GLXMAW Soybean, Williams [21] = assay: Postemergence herbicidal evaluation, GLXMAW; type: in vivo, Glycine max, (L.) Merr. cv Williams; settings: postemergence spray, rated about two-three weeks after treatment
Summary of the method: as §2

GALAP Galium [22] = assay: Preemergence herbicidal evaluation, GALAP; type: in vivo, Galium aparine; settings: preemergence
Summary of the method: as §1

CASOB Sicklepod [23] = assay: Postemergence herbicidal evaluation, CASOB; type: in vivo, Cassia obtusifolia, L.; settings: postemergence spray, rated about two-three weeks after treatment
Summary of the method: as §2

ABUTH Velvetleaf [24] = assay: Postemergence herbicidal evaluation, ABUTH; type: in vivo, Abutilon theophrasti, Medic.; settings: postemergence spray, rated about two-three weeks after treatment
Summary of the method: as §2

COc1ccccc1-n1nnc2cc(F)c(-n3c(=O)cc(C(F)(F)F)n(C)c3=O)cc21 [Example 16, 3-[5-Fluoro-1-(2-Methoxyphenyl)-1H-1,2,3-Benzotriazol-6-yl]-1-Methyl-6-(Trifluoromethyl)-2,4(1H,3H)-Pyrmidinedione]
4.0: Postemergence herbicidal rating ORYSAT (ORYSAT Rice, Tebonnet [4]; 0.062 kg/ha) | Postemergence herbicidal rating GALAP (GALAP Galium [20]; 0.062 kg/ha)
8.0: ZEAMX herbicidal rating (ZEAMX Corn, Field [2]; rate 0.016 kg/ha) | ZEAMX herbicidal rating (ZEAMX Corn, Field [2]; rate 0.062 kg/ha) | ZEAMX herbicidal rating (ZEAMX Corn, Field [2]; rate 0.125 kg/ha) | TRZAWR herbicidal rating ([11]; rate 0.032 kg/ha) | TRZAWR herbicidal rating ([11]; rate 0.062 kg/ha) | Postemergence herbicidal rating CHEAL ([18]; 0.062 kg/ha)
5.5: Postemergence herbicidal rating TRZAWR ([8]; 0.062 kg/ha) | Postemergence herbicidal rating ZEAMX (ZEAMX Corn, Field [17]; 0.008 kg/ha)
0.0: CASOB herbicidal rating (CASOB Sicklepod [14]; rate 0.016 kg/ha) | CASOB herbicidal rating (CASOB Sicklepod [14]; rate 0.032 kg/ha) | Postemergence herbicidal rating GALAP (GALAP Galium [20]; 0.008 kg/ha) | GALAP herbicidal rating (GALAP Galium [22]; rate 0.016 kg/ha) | GALAP herbicidal rating (GALAP Galium [22]; rate 0.032 kg/ha)
7.0: ZEAMX herbicidal rating (ZEAMX Corn, Field [2]; rate 0.032 kg/ha) | ORYSAT herbicidal rating (ORYSAT Rice, Tebonnet [13]; rate 0.016 kg/ha) | ORYSAT herbicidal rating (ORYSAT Rice, Tebonnet [13]; rate 0.032 kg/ha) | Postemergence herbicidal rating SETVI (SETVI Foxtail, Green [16]; 0.032 kg/ha)
2.5: Postemergence herbicidal rating ORYSAT (ORYSAT Rice, Tebonnet [4]; 0.008 kg/ha) | Postemergence herbicidal rating TRZAWR ([8]; 0.008 kg/ha)
3.0: Postemergence herbicidal rating ORYSAT (ORYSAT Rice, Tebonnet [4]; 0.016 kg/ha) | Postemergence herbicidal rating ORYSAT (ORYSAT Rice, Tebonnet [4]; 0.032 kg/ha) | Postemergence herbicidal rating ECHCG (ECHOG Barnyardgrass [7]; 0.032 kg/ha) | Postemergence herbicidal rating TRZAWR ([8]; 0.016 kg/ha) | IPOHE herbicidal rating ([10]; rate 0.016 kg/ha) | IPOHE herbicidal rating ([10]; rate 0.032 kg/ha) | Postemergence herbicidal rating GALAP (GALAP Galium [20]; 0.016 kg/ha) | Postemergence herbicidal rating GALAP (GALAP Galium [20]; 0.032 kg/ha)
3.5: Postemergence herbicidal rating TRZAWR ([8]; 0.032 kg/ha)
2.0: Postemergence herbicidal rating ECHCG (ECHOG Barnyardgrass [7]; 0.008 kg/ha) | Postemergence herbicidal rating ECHCG (ECHOG Barnyardgrass [7]; 0.016 kg/ha) | Postemergence herbicidal rating AMBEL (AMBEL Ragweed, Common [12]; 0.008 kg/ha) | Postemergence herbicidal rating SETVI (SETVI Foxtail, Green [16]; 0.008 kg/ha)
6.0: AMBEL herbicidal rating (AMBEL Ragweed, Common [3]; rate 0.016 kg/ha) | TRZAWR herbicidal rating ([11]; rate 0.016 kg/ha) | Postemergence herbicidal rating ZEAMX (ZEAMX Corn, Field [17]; 0.016 kg/ha) | Postemergence herbicidal rating ZEAMX (ZEAMX Corn, Field [17]; 0.032 kg/ha) | Postemergence herbicidal rating ZEAMX (ZEAMX Corn, Field [17]; 0.062 kg/ha) | Postemergence herbicidal rating CHEAL ([18]; 0.032 kg/ha) | Postemergence herbicidal rating GLXMAW (GLXMAW Soybean, Williams [21]; 0.032 kg/ha) | Postemergence herbicidal rating CASOB (CASOB Sicklepod [23]; 0.008 kg/ha) | Postemergence herbicidal rating CASOB (CASOB Sicklepod [23]; 0.016 kg/ha) | Postemergence herbicidal rating CASOB (CASOB Sicklepod [23]; 0.032 kg/ha)
7.5: Postemergence herbicidal rating GLXMAW (GLXMAW Soybean, Williams [21]; 0.062 kg/ha)
9.0: ABUTH herbicidal rating (ABUTH Velvetleaf [1]; rate 0.016 kg/ha) | ABUTH herbicidal rating (ABUTH Velvetleaf [1]; rate 0.032 kg/ha) | ABUTH herbicidal rating (ABUTH Velvetleaf [1]; rate 0.062 kg/ha) | ABUTH herbicidal rating (ABUTH Velvetleaf [1]; rate 0.125 kg/ha) | AMBEL herbicidal rating (AMBEL Ragweed, Common [3]; rate 0.032 kg/ha) | AMBEL herbicidal rating (AMBEL Ragweed, Common [3]; rate 0.062 kg/ha) | AMBEL herbicidal rating (AMBEL Ragweed, Common [3]; rate 0.125 kg/ha) | CHEAL herbicidal rating ([5]; rate 0.016 kg/ha) | CHEAL herbicidal rating ([5]; rate 0.032 kg/ha) | CHEAL herbicidal rating ([5]; rate 0.062 kg/ha) | CHEAL herbicidal rating ([5]; rate 0.125 kg/ha) | SETVI herbicidal rating (SETVI Foxtail, Green [6]; rate 0.016 kg/ha) | SETVI herbicidal rating (SETVI Foxtail, Green [6]; rate 0.032 kg/ha) | SETVI herbicidal rating (SETVI Foxtail, Green [6]; rate 0.062 kg/ha) | SETVI herbicidal rating (SETVI Foxtail, Green [6]; rate 0.125 kg/ha) | ECHCG herbicidal rating (ECHOG Barnyardgrass [9]; rate 0.016 kg/ha) | ECHCG herbicidal rating (ECHOG Barnyardgrass [9]; rate 0.032 kg/ha) | ECHCG herbicidal rating (ECHOG Barnyardgrass [9]; rate 0.062 kg/ha) | ECHCG herbicidal rating (ECHOG Barnyardgrass [9]; rate 0.125 kg/ha) | IPOHE herbicidal rating ([10]; rate 0.062 kg/ha) | IPOHE herbicidal rating ([10]; rate 0.125 kg/ha) | TRZAWR herbicidal rating ([11]; rate 0.125 kg/ha) | Postemergence herbicidal rating AMBEL (AMBEL Ragweed, Common [12]; 0.016 kg/ha) | Postemergence herbicidal rating AMBEL (AMBEL Ragweed, Common [12]; 0.032 kg/ha) | Postemergence herbicidal rating AMBEL (AMBEL Ragweed, Common [12]; 0.062 kg/ha) | ORYSAT herbicidal rating (ORYSAT Rice, Tebonnet [13]; rate 0.062 kg/ha) | ORYSAT herbicidal rating (ORYSAT Rice, Tebonnet [13]; rate 0.125 kg/ha) | CASOB herbicidal rating (CASOB Sicklepod [14]; rate 0.062 kg/ha) | CASOB herbicidal rating (CASOB Sicklepod [14]; rate 0.125 kg/ha) | GLXMAW herbicidal rating (GLXMAW Soybean, Williams [15]; rate 0.016 kg/ha) | GLXMAW herbicidal rating (GLXMAW Soybean, Williams [15]; rate 0.032 kg/ha) | GLXMAW herbicidal rating (GLXMAW Soybean, Williams [15]; rate 0.062 kg/ha) | GLXMAW herbicidal rating (GLXMAW Soybean, Williams [15]; rate 0.125 kg/ha) | Postemergence herbicidal rating SETVI (SETVI Foxtail, Green [16]; 0.062 kg/ha) | Postemergence herbicidal rating IPOHE ([19]; 0.032 kg/ha) | Postemergence herbicidal rating IPOHE ([19]; 0.062 kg/ha) | GALAP herbicidal rating (GALAP Galium [22]; rate 0.062 kg/ha) | GALAP herbicidal rating (GALAP Galium [22]; rate 0.125 kg/ha) | Postemergence herbicidal rating CASOB (CASOB Sicklepod [23]; 0.062 kg/ha) | Postemergence herbicidal rating ABUTH (ABUTH Velvetleaf [24]; 0.008 kg/ha) | Postemergence herbicidal rating ABUTH (ABUTH Velvetleaf [24]; 0.016 kg/ha) | Postemergence herbicidal rating ABUTH (ABUTH Velvetleaf [24]; 0.032 kg/ha) | Postemergence herbicidal rating ABUTH (ABUTH Velvetleaf [24]; 0.062 kg/ha)
5.0: Postemergence herbicidal rating ECHCG (ECHOG Barnyardgrass [7]; 0.062 kg/ha) | Postemergence herbicidal rating SETVI (SETVI Foxtail, Green [16]; 0.016 kg/ha) | Postemergence herbicidal rating CHEAL ([18]; 0.008 kg/ha) | Postemergence herbicidal rating CHEAL ([18]; 0.016 kg/ha) | Postemergence herbicidal rating IPOHE ([19]; 0.008 kg/ha) | Postemergence herbicidal rating IPOHE ([19]; 0.016 kg/ha) | Postemergence herbicidal rating GLXMAW (GLXMAW Soybean, Williams [21]; 0.008 kg/ha) | Postemergence herbicidal rating GLXMAW (GLXMAW Soybean, Williams [21]; 0.016 kg/ha)
